Measurements as given in US8076487B2, “Pyridone derivative and herbicide” (Kumiai Chemical Industry Co., Ltd., priority 2006, dated 2011).

What was measured:
Format in all cases: in vivo
[1] = tested on: green foxtail (Setaria viridis (L.) P. Beauv.); experiment: Test Example 3: herbicidal effect by application to upland field (foliage treatment); conditions: foliage treatment, 1,000 g active ingredient per 1 hectare, 14th day after application, greenhouse
Procedure, shortened: (§1)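 Dose 1,000 g active ingredient/ha, sprayed as diluted wettable powder over entire plants two weeks after sowing in field soil. Kept in greenhouse; herbicidal effect graded on a standard scale on day 14.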

[2] = tested on: slender amaranth (Amaranthus viridis L.); experiment: as above; conditions: foliage treatment, 1,000 g active ingredient per 1 hectare, 14th day after application, greenhouse
Procedure, shortened: as §1

[3] = tested on: velvetleaf (Abutilon theophrasti medicus); experiment: as above; conditions: foliage treatment, 1,000 g active ingredient per 1 hectare, 14th day after application, greenhouse
Procedure, shortened: as §1

[4] = tested on: barnyardgrass (Echinochloa crus-galli (L.) P. Beauv. var. crus-galli); experiment: as above; conditions: foliage treatment, 1,000 g active ingredient per 1 hectare, 14th day after application, greenhouse
Procedure, shortened: as §1

[5] = tested on: heartshape false pickerelweed (Monochoria vaginalis (Burm.f.) C.Presl); experiment: Test Example 1: herbicidal effect by soil application to paddy field; conditions: paddy field soil application; active ingredient 1,000 g per 1 hectare; wettable powder added dropwise to water surface the day after sowing; examined on the 21st day after application
Procedure, shortened: (§2)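 Under greenhouse conditions, seeds sown on puddled paddy soil in 100 cm2 pots under 3 cm of standing water received the test compound; injury was assessed with a standard scoring scheme three weeks (day 21) after treatment.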

[6] = tested on: Japanese bulrush (Scirpus juncoides Roxb.); experiment: as above; conditions: paddy field soil application; active ingredient 1,000 g per 1 hectare; wettable powder added dropwise to water surface the day after sowing; examined on the 21st day after application
Procedure, shortened: as §2

[7] = tested on: early watergrass (Echinochloa oryzicola Vasing); experiment: as above; conditions: paddy field soil application; active ingredient 1,000 g per 1 hectare; wettable powder added dropwise to water surface the day after sowing; examined on the 21st day after application
Procedure, shortened: as §2

[8] = tested on: green foxtail (Setaria viridis (L.) P. Beauv.); experiment: Test Example 2: herbicidal effect by soil application to upland field; conditions: soil surface spray, upland field soil, 1,000 g active ingredient per hectare, 21st day after application
Procedure, shortened: (§3)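 A standard visual rating of herbicidal effect, made 21 days after treatment, gives the value. Treatment consisted of a uniform spray of water-diluted wettable powder on the soil covering newly sown seeds, equivalent to 1,000 g active ingredient and 1,000 liters per hectare.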

[9] = tested on: slender amaranth (Amaranthus viridis L.); experiment: as above; conditions: soil surface spray, upland field soil, 1,000 g active ingredient per hectare, 21st day after application
Procedure, shortened: as §3

[10] = tested on: velvetleaf (Abutilon theophrasti medicus); experiment: as above; conditions: soil surface spray, upland field soil, 1,000 g active ingredient per hectare, 21st day after application
Procedure, shortened: as §3

[11] = tested on: barnyardgrass (Echinochloa crus-galli (L.) P. Beauv. var. crus-galli); experiment: as above; conditions: soil surface spray, upland field soil, 1,000 g active ingredient per hectare, 21st day after application
Procedure, shortened: as §3

Structure (SMILES) | herbicidal effect, Green Foxtail [1] | herbicidal effect, Slender Amaranth [2] | herbicidal effect, Velvetleaf [3] | herbicidal effect, Barnyardgrass [4] | herbicidal effect, Monochoria vaginalis (Burm. f.) C. Presl [5] | herbicidal effect, Scirpus juncoides Roxb. [6] | herbicidal effect, Echinochloa oryzicola Vasing [7] | herbicidal effect (index), Green Foxtail [8] | herbicidal effect (index), Slender Amaranth [9] | herbicidal effect (index), Velvetleaf [10] | herbicidal effect (index), Barnyardgrass [11]
O=C1CCCC(O)=C1C(=O)c1ccc(C(F)F)n(-c2ccccc2)c1=O [I-223] | 5 (90% or more of herbicidal effect and crop phytotoxicity) | 5 (90% or more of herbicidal effect and crop phytotoxicity) | 5 (90% or more of herbicidal effect and crop phytotoxicity) | 5 (90% or more of herbicidal effect and crop phytotoxicity) | 5 (90% or more of herbicidal effect and crop phytotoxicity) | 5 (90% or more of herbicidal effect and crop phytotoxicity) | 5 (90% or more of herbicidal effect and crop phytotoxicity) | 5 (90% or more of herbicidal effect and crop phytotoxicity) | 5 (90% or more of herbicidal effect and crop phytotoxicity) | 5 (90% or more of herbicidal effect and crop phytotoxicity) | 5 (90% or more of herbicidal effect and crop phytotoxicity)
Cn1ncc(C(=O)c2ccc(C(F)(F)F)n(C)c2=O)c1OCc1ccccc1 [IV-190] | 4 (70 to less than 90% of herbicidal effect and crop phytotoxicity) | 5 (90% or more of herbicidal effect and crop phytotoxicity) | 5 (90% or more of herbicidal effect and crop phytotoxicity) | 5 (90% or more of herbicidal effect and crop phytotoxicity) | 5 (90% or more of herbicidal effect and crop phytotoxicity) | 5 (90% or more of herbicidal effect and crop phytotoxicity) | 5 (90% or more of herbicidal effect and crop phytotoxicity) | 5 (90% or more of herbicidal effect and crop phytotoxicity) | 5 (90% or more of herbicidal effect and crop phytotoxicity) | 5 (90% or more of herbicidal effect and crop phytotoxicity) | 5 (90% or more of herbicidal effect and crop phytotoxicity)
COCC(C)n1c(C(F)(F)F)ccc(C(=O)C2=C(O)C3CCC(C3)C2=O)c1=O (stereo not drawn) [III-21] | 5 (90% or more of herbicidal effect and crop phytotoxicity) | 5 (90% or more of herbicidal effect and crop phytotoxicity) | 5 (90% or more of herbicidal effect and crop phytotoxicity) | 5 (90% or more of herbicidal effect and crop phytotoxicity) | 5 (90% or more of herbicidal effect and crop phytotoxicity) | 5 (90% or more of herbicidal effect and crop phytotoxicity) | 5 (90% or more of herbicidal effect and crop phytotoxicity) | 5 (90% or more of herbicidal effect and crop phytotoxicity) | 5 (90% or more of herbicidal effect and crop phytotoxicity) | 5 (90% or more of herbicidal effect and crop phytotoxicity) | 5 (90% or more of herbicidal effect and crop phytotoxicity)
Cn1ncc(C(=O)c2ccc(C(F)(F)F)n(CC3CCOC3)c2=O)c1O (stereo not drawn) [IV-143] | 5 (90% or more of herbicidal effect and crop phytotoxicity) | 5 (90% or more of herbicidal effect and crop phytotoxicity) | 5 (90% or more of herbicidal effect and crop phytotoxicity) | 5 (90% or more of herbicidal effect and crop phytotoxicity) | 5 (90% or more of herbicidal effect and crop phytotoxicity) | 5 (90% or more of herbicidal effect and crop phytotoxicity) | 5 (90% or more of herbicidal effect and crop phytotoxicity) | 5 (90% or more of herbicidal effect and crop phytotoxicity) | 5 (90% or more of herbicidal effect and crop phytotoxicity) | 5 (90% or more of herbicidal effect and crop phytotoxicity) | 5 (90% or more of herbicidal effect and crop phytotoxicity)
Cn1ncc(C(=O)c2ccc(C(F)(F)F)n(CC3CCCO3)c2=O)c1O (stereo not drawn) [IV-129] | 4 (70 to less than 90% of herbicidal effect and crop phytotoxicity) | 5 (90% or more of herbicidal effect and crop phytotoxicity) | 5 (90% or more of herbicidal effect and crop phytotoxicity) | 5 (90% or more of herbicidal effect and crop phytotoxicity) | 5 (90% or more of herbicidal effect and crop phytotoxicity) | 5 (90% or more of herbicidal effect and crop phytotoxicity) | 5 (90% or more of herbicidal effect and crop phytotoxicity) | 3 (50 to less than 70% of herbicidal effect and crop phytotoxicity) | 5 (90% or more of herbicidal effect and crop phytotoxicity) | 5 (90% or more of herbicidal effect and crop phytotoxicity) | 4 (70 to less than 90% of herbicidal effect and crop phytotoxicity)
Cn1ncc(C(=O)c2ccc(C(F)(F)F)n(CCC=C(Cl)Cl)c2=O)c1O [IV-30] | 5 (90% or more of herbicidal effect and crop phytotoxicity) | 5 (90% or more of herbicidal effect and crop phytotoxicity) | 5 (90% or more of herbicidal effect and crop phytotoxicity) | 5 (90% or more of herbicidal effect and crop phytotoxicity) | 5 (90% or more of herbicidal effect and crop phytotoxicity) | 5 (90% or more of herbicidal effect and crop phytotoxicity) | 5 (90% or more of herbicidal effect and crop phytotoxicity) | 3 (50 to less than 70% of herbicidal effect and crop phytotoxicity) | 5 (90% or more of herbicidal effect and crop phytotoxicity) | 5 (90% or more of herbicidal effect and crop phytotoxicity) | 5 (90% or more of herbicidal effect and crop phytotoxicity)
